The structures appear in SMILES notation. The source made the active and inactive calls. No cut-off for these calls is given here.

Assay [1] deals with HEK-293T. Nature of the assay: (§1) Inhibition of His-6 tagged SARS-CoV-2 spike protein uptake in ACE2 overexpressing HEK293T cells at 1 uM incubated for 30 mins by DAPI staining based confocal microscopy analysis. It is filed as functional. The note with it: Homo sapiens.
Assay [2] in a line: as §1. It is filed as functional. As to conditions: Homo sapiens, HEK-293T, 0.5 h.

`Cc1cccc(/C=N/Nc2cc(N3CCOCC3)nc(OCCc3ccccn3)n2)c1`: the inhibition entry in assay [1] is “Active”. In assay [2], `CC(C)(O)C#Cc1ccc2[nH]c3c(c2c1)-c1nc(N)ncc1CCC3` displayed an inhibition at 1 µM of less than 10%.

In the case of `Nc1ncc2c(n1)-c1c([nH]c3ccc(-c4ccc(F)cc4)cc13)CCC2`, the inhibition result in assay [1] is “Active”.

Regarding `CN(C)CC#Cc1ccc2[nH]c3c(c2c1)-c1nc(N)ncc1CCC3`, the inhibition result in assay [1] was “Active”.

Broadly, the inhibition is the share of the control response that was lost under treatment.

Source of the values: ChEMBL document CHEMBL5108045, “Identification and Utilization of a Chemical Probe to Interrogate the Roles of PIKfyve in the Lifecycle of β-Coronaviruses” (J Med Chem, 2022).
